{"source": "patent US20110008328A1", "about": "“METHOD FOR CONTROLLING GLUCOSE UPTAKE AND INSULIN SENSITIVITY” (Pfizer Inc., priority 2007, published 2011)", "key": {"[1]": {"test": "Hyperinsulinemic euglycemic clamp in Zucker rats (rate of glucose disposal, Rd)", "type": "in vivo, rat", "conditions": "obese Zucker (fa/fa) rats, post-Rx, pioglitazone 10 mg/kg/day in chow for 3 weeks; average ± standard error", "protocol": "Peripheral insulin sensitivity (measured as the rate of glucose disposal, Rd) of the rat and human groups was measured using the hyperinsulinemic euglycemic clamp procedure. Clinical characteristics of the rats and humans are detailed in Table 1. OPN expression in adipose tissue was elevated in obese, insulin resistant rats (17-fold) and humans (4.6-fold) compared to insulin sensitive lean controls. […] In fact, when the pre-treatment patient data was combined, there was a significant correlation between adipose tissue OPN RNA levels and Rd (FIG. 1C).\nMale C57Bl/6J WT mice (cat #000664) and OPN KO mice (B6.Cg-Spp1tm2blh/J, cat #004936) were purchased from Jackson Laboratories. […]\n(§1) Insulin sensitivity was determined by hyperinsulinemic euglycemic clamp, as previously published (Hevener, A L, et al., 2001, Diabetes 50, 2316-2322). […] Plasma glucose specific activity was measured after deproteinization with barium hydroxide and zinc sulfate (Revers, R R, 1984, J Clin Invest 73, 664-672). Hepatic glucose output (HGO) and glucose disposal rate (GDR) were calculated for the basal period and the steady-state portion of the glucose clamp using the Steele equation for steady-state conditions (Steele R. Influences of glucose loading and of injected insulin on hepatic glucose output. Ann N Y Acad Sci 82: 420-430, 1959). […]"}, "[2]": {"test": "Hyperinsulinemic-euglycemic clamp in human patients (rate of glucose disposal, Rd)", "type": "in vivo", "conditions": "obese, insulin resistant patients, post-Rx, pioglitazone 45 mg/day for 3 months; average ± standard error"}, "[3]": {"test": "Body weight and fasting plasma analyses in Zucker rats", "type": "in vivo, rat", "conditions": "obese Zucker (fa/fa) rats, post-Rx, pioglitazone 10 mg/kg/day in chow for 3 weeks; average ± standard error", "excerpt": "Male C57Bl/6J WT mice (cat #000664) and OPN KO mice (B6.Cg-Spp1tm2blh/J, cat #004936) were purchased from Jackson Laboratories. This OPN KO mouse line has been backcrossed into the C57Bl/6J background >10 generations. Mouse diets were as follows: normal chow diet (12% kcal from fat; Purina 5001, LabDiet) and high fat diet (41% kcal from fat; TD96132, Harlan Teklad). Mice were 4-6 months of age and age-matched in all studies. Male lean Zucker (fa/+) and fatty Zucker (fa/fa) rats were purchased from Charles River. […] All rats were nine weeks of age at time of terminal metabolic studies and tissue harvest. All animals were housed 1-3 per cage under controlled light (12:12 light:dark) and climate conditions. Animals had unlimited access to food and water.\nas §1\nPlasma insulins were measured by radioimmune assay kit (Linco Research, St. Charles, Mo.). Plasma FFA levels were measured enzymatically using a commercially available kit (NEFA C; Wako Chemicals USA). Triglycerides were measured using the Triglyceride-SL Assay (Diagnostic Chemicals Ltd.). Cholesterol was measured using the Chol kit and Roche/Hitachi analyzer (Roche). Tissue lysates were analyzed by SDS-PAGE, western blotting and chemiluminescence and by ELISA. Signal intensities of chemiluminescence autoradiographs were densitometrically quantified using a digital Kodak 3D Imagestation and associated digital image analysis software (Kodak, New. Haven, Conn.). […]"}, "[4]": {"test": "BMI and fasting plasma analyses in human patients", "type": "in vivo", "conditions": "post-Rx, pioglitazone 45 mg/day for 3 months, average ± standard error", "protocol": "Baseline plasma samples were drawn and hyperinsulinemic-euglycemic clamps were performed in the morning after a 10 hr fast as previously described (Frias, J P et al., 2000, Diabetes Care 23, 64-69; Yu, J G et al., 2002, Diabetes 51, 2968-2974). The experimental protocol was approved by the Institutional Review Board of the University of California, San Diego. Informed written consent was obtained from each subject.\nPlasma insulins were measured by radioimmune assay kit (Linco Research, St. Charles, Mo.). Plasma FFA levels were measured enzymatically using a commercially available kit (NEFA C; Wako Chemicals USA). Triglycerides were measured using the Triglyceride-SL Assay (Diagnostic Chemicals Ltd.). Cholesterol was measured using the Chol kit and Roche/Hitachi analyzer (Roche). Tissue lysates were analyzed by SDS-PAGE, western blotting and chemiluminescence and by ELISA. Signal intensities of chemiluminescence autoradiographs were densitometrically quantified using a digital Kodak 3D Imagestation and associated digital image analysis software (Kodak, New. Haven, Conn.). IL-1β, IL-12p70, IFNγ, IL-6, IL-10, Cxcl1 and TNFα levels in plasma and tissue lysates were measured using a multiplex (7-plex) ELISA (Meso Scale Discovery)."}, "[5]": {"conditions": "lean, insulin sensitive patients"}, "[6]": {"conditions": "obese, insulin resistant patients"}}, "data": [{"smiles": "CCc1ccc(CCOc2ccc(CC3SC(=O)NC3=O)cc2)nc1", "note": "(stereo not shown) [pioglitazone]", "values": [{"measurement": "Glucose disposal, Rd", "setting": "[1]", "result": "30.6 ± 2.9", "unit": "mg/kg/min"}, {"measurement": "Glucose disposal, Rd", "setting": "[2]", "result": "5.9 ± 0.5", "unit": "mg/kg/min"}, {"measurement": "Fasting plasma free fatty acids", "setting": "[3]", "result": "0.69 ± 0.29", "unit": "mmol/L"}, {"measurement": "Fasting plasma glucose", "setting": "[3]", "result": "124.8 ± 4.0 ^ mg/dL"}, {"measurement": "Fasting plasma triglyceride", "setting": "[3]", "result": "108.0 ± 16.1", "unit": "mg/dL"}, {"measurement": "Fasting plasma free fatty acids", "setting": "[4]; [5]", "result": "414 ± 90", "unit": "µM"}, {"measurement": "Fasting plasma glucose", "setting": "[4]; [5]", "result": "87.6 ± 3.1", "unit": "mg/dL"}, {"measurement": "Fasting plasma insulin", "setting": "[4]; [5]", "result": "10.1 ± 2.2", "unit": "pmol/L"}, {"measurement": "Fasting plasma triglyceride", "setting": "[4]; [5]", "result": "76.0 ± 9.2", "unit": "mg/dL"}, {"measurement": "Fasting plasma free fatty acids", "setting": "[4]; [6]", "result": "434 ± 59", "unit": "µM"}, {"measurement": "Fasting plasma glucose", "setting": "[4]; [6]", "result": "91.7 ± 2.5", "unit": "mg/dL"}, {"measurement": "Fasting plasma insulin", "setting": "[4]; [6]", "result": "13.6 ± 1.6", "unit": "pmol/L"}, {"measurement": "Fasting plasma triglyceride", "setting": "[4]; [6]", "result": "137.7 ± 7.2", "unit": "mg/dL"}]}]}
